Where “and” joins values, the source holds several entries; their conditions need not be identical. Equal values may be shown once.
Tested on: 422866-222-R5-J1-PDC spheroid viability
Assay: Anticancer human tumor 422866-222-R5-J1-PDC patient-derived pancreatic adenocarcinoma cell line growth inhibition [CLK]
Settings: spheroids with HUVEC and MSC; for viability, T/C: stronger effect = lower value
Summary of the method: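 Multi-cell-type spheroids combined patient-derived tumor cells with HUVEC endothelial cells and human mesenchymal stem cells. Paired agents were dosed in half-log steps down from about clinical Cmax, or from 10 microM where Cmax was unknown.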
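Note: spheroids exposed to agents for seven days before readout.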

## O=c1[nH]cc(F)c(=O)[nH]1 + CN1CCN(c2cc(C(=O)Nc3cc4cc(-c5cnn(C)c5)ccc4cn3)ccn2)CC1
Curve of first compound, second compound 0.0316 µM
  IC50: > 10000 nM
Curve of first compound, second compound 0.1 µM
  IC50: > 10000 nM
Curve of first compound, second compound 0.316 µM
  IC50: > 10000 nM
Curve of first compound, second compound 1 µM
  IC50: < 31.6 nM
Curve of first compound, second compound 3.16 µM
  IC50: < 31.6 nM
Curve of first compound, second compound 10 µM
  IC50: < 31.6 nM
Second compound 0.0316 µM, first compound 0.0316 µM
  viability, T/C: 116%
Second compound 0.0316 µM, first compound 0.1 µM
  viability, T/C: 129%
Second compound 0.0316 µM, first compound 0.316 µM
  viability, T/C: 114%
Second compound 0.0316 µM, first compound 1 µM
  viability, T/C: 95.6%
Second compound 0.0316 µM, first compound 3.16 µM
  viability, T/C: 86.9%
Second compound 0.0316 µM, first compound 10 µM
  viability, T/C: 77.1%
Second compound 0.1 µM, first compound 0.0316 µM
  viability, T/C: 125%
Second compound 0.1 µM, first compound 0.1 µM
  viability, T/C: 104%
Second compound 0.1 µM, first compound 0.316 µM
  viability, T/C: 108%
Second compound 0.1 µM, first compound 1 µM
  viability, T/C: 90.5%
Second compound 0.1 µM, first compound 3.16 µM
  viability, T/C: 84.7%
Second compound 0.1 µM, first compound 10 µM
  viability, T/C: 91%
Second compound 0.316 µM, first compound 0.0316 µM
  viability, T/C: 90.4%
Second compound 0.316 µM, first compound 0.1 µM
  viability, T/C: 100%
Second compound 0.316 µM, first compound 0.316 µM
  viability, T/C: 91.9%
Second compound 0.316 µM, first compound 1 µM
  viability, T/C: 96.1%
Second compound 0.316 µM, first compound 3.16 µM
  viability, T/C: 80.7%
Second compound 0.316 µM, first compound 10 µM
  viability, T/C: 80.6%
Second compound 1 µM, first compound 0.0316 µM
  viability, T/C: 24.2%
Second compound 1 µM, first compound 0.1 µM
  viability, T/C: 19.1%
Second compound 1 µM, first compound 0.316 µM
  viability, T/C: 25.6%
Second compound 1 µM, first compound 1 µM
  viability, T/C: 17.9%
Second compound 1 µM, first compound 3.16 µM
  viability, T/C: 23.7%
Second compound 1 µM, first compound 10 µM
  viability, T/C: 22.5%
Second compound 3.16 µM, first compound 0.0316 µM
  viability, T/C: 8.44%
Second compound 3.16 µM, first compound 0.1 µM
  viability, T/C: 10.5%
Second compound 3.16 µM, first compound 0.316 µM
  viability, T/C: 9.21%
Second compound 3.16 µM, first compound 1 µM
  viability, T/C: 8.88%
Second compound 3.16 µM, first compound 3.16 µM
  viability, T/C: 10.5%
Second compound 3.16 µM, first compound 10 µM
  viability, T/C: 9.67%
Second compound 10 µM, first compound 0.0316 µM
  viability, T/C: 1.68%
Second compound 10 µM, first compound 0.1 µM
  viability, T/C: 1.08%
Second compound 10 µM, first compound 0.316 µM
  viability, T/C: 0.97%
Second compound 10 µM, first compound 1 µM
  viability, T/C: 1.08%
Second compound 10 µM, first compound 3.16 µM
  viability, T/C: 3.1%
Second compound 10 µM, first compound 10 µM
  viability, T/C: 1.13%

## C=CC(=O)Nc1cc(Nc2nccc(-c3cn(C)c4ccccc34)n2)c(OC)cc1N(C)CCN(C)C
Compound 0.000949 µM
  viability, T/C: 117% and 87.2%
Compound 0.003 µM
  viability, T/C: 106% and 102%
Compound 0.00949 µM
  viability, T/C: 83% and 85%
Compound 0.03 µM
  viability, T/C: 93.5% and 83.8%
Compound 0.0949 µM
  viability, T/C: 82.8% and 69%
Compound 0.3 µM
  viability, T/C: 74.9% and 72.9%
Curve of compound
  IC50: > 300 nM
